Experimental data reported in US20250250559A1, “METHOD TO ANALYZE AND OPTIMIZE GENE EDITING MODULES AND DELIVERY APPROACHES” (Hoffmann-La Roche Inc., priority 2016, published 2025).
Values joined by “and” are separate entries in the source; they are usually repeats but may differ in a detail not shown here. Equal values may be shown once. “Also recorded” adds a separate entry of the source.

What was measured:
Type in all cases: cell-based, human
DPH1 gene [1] = test: DT resistant colony count after DPH1 gene editing (homozygous gene inactivation); conditions: for # of DT resistant colonies (20,000 seeded cells) / # of DT resistant colonies (20,000 seeded cells) (unheaded second sub-column: mean): DPH1 (gRNA length), TF eff. = 31%; for # of DT resistant colonies (20,000 seeded cells): MCF7, individual samples A-D; for # of DT resistant colonies (mean of the samples): DPH1 assay (integr. vs. k.o.), 20,000 seeded cells; for # of DT resistant colonies (mean of the samples) / # of DT resistant colonies: TF eff. = 38%; for # of DT resistant colonies: DPH1 assay (integr. vs. k.o.), MCF7, 20,000 seeded cells, individual samples; for generation of DTr colonies: MCF7
Description: (§1) MCF7 cells (Brooks, et al. 1973) were originally obtained from ATCC (subsequently propagated in an in-house cell bank) and maintained in RPMI […] medium supplemented with 10% FCS, 2 mM L-Glutamine and penicillin/streptomycin at 37° C. and 85% humidity. For transfection of plasmids harboring gene-editing modules, 3,000,000 cells were seeded in a 10 cm diameter culture dish and cultivated at 37° C. and humidified 5% CO2. 24 h after seeding, cells were transfected with 20 μg total DNA using JetPEI (Polyplus) according to the manufacturer's protocol but with an N/P ratio of 6:1. Transfection efficiency was determined after 24 h by flow cytometry (FACS Calibur, BD biosciences) of cells that were transfected with a modified eGFP expression plasmid (Zhang, et al. 1996).
(§2) Plasmids encoding CRISPR/Cas9 gene-editing entities (i.e. knock-out and integration systems) against Dph1 (gRNA target sequence: […] (SEQ ID NO: 01) derived from RefSeq: NM_001383) and Dph2 (gRNA target sequence: […] (SEQ ID NO: 02) derived from RefSeq: NM_001039589, NM_001384), and scrambled control (gRNA sequence: […] (SEQ ID NO: 03)) were obtained from OriGene. This system comprises one plasmid expressing a ˜100 nt gRNA under control of a U6 promoter as well as Cas9 nuclease under control of a CMV promoter and a Donor plasmid with a promoter-less GFP/PM expression cassette flanked by homologous arms to the target gene (Dph1 or Dph2). Additional Dph1 gRNA sequence variants of different sizes (OriGene) […]
(§3) MCF7 cells which have all chromosomal copies of DPH1 or DPH2 inactivated are resistant to diphtheria toxin (Stahl, et al. 2015). Thus, occurrence and frequency of toxin resistant cells/colonies upon CRISPR/Cas inflicted gene inactivation provides a measure for efficiency of inactivation of all gene copies. Therefore, MCF/cells were transfected as described in Example 1 with (i) a GFP expression plasmid as transfection control, (ii) the CRISPR/Cas9 Dph1 or Dph2 knock-out/integration system and (iii) knock-out/integration entities containing a scrambled gRNA to determine Cas9 independent integration frequencies. After determination of transfection efficiency, cells were seeded in 6-well plates. For quantification of homozygous knock-out events by DT 20000 cells were seeded and for quantification of integration events by PM or both events 40000 cells were seeded. RPMI medium was exchanged by RPMI medium containing DT or PM or both toxins 3 days after cell seeding. Exchange of medium was repeated every 2-3 days until all dead cells were removed from the plates and actively growing colonies could be detected via microscopic inspection. Thereafter (between day 12 and day 14 after start of toxin exposure), cells were washed 3 times with PBS and subsequently stained with ice cold methylene blue (0.2% in 50% EtOH). Methylene blue solution was subsequently removed and the plates were carefully washed under running water. Finally, cell colonies were counted under the microscope with a 5 mm grid foil.
MCF7 cells which have all chromosomal copies of DPH1 inactivated are DT resistant. Thus, occurrence and frequency of DTr colonies upon ZFN inflicted gene inactivation and/or cassette integration provides a measure for efficacy of inactivation of all gene copies. The ZFN recognition sequence ([…], cleavage site, SEQ ID NO: 10) are derived from NM_001383.3 (DPH1-wt) and were obtained from Sigma Aldrich. A PAC integration cassette for this position was obtained from OriGene. MCF7 cells were transfected as described above with (i) a GFP expression plasmid, (ii) the plasmid encoding DPH1-targeting ZFN and (iii) the DPH1-targeting PAC-integration cassette. After determination of transfection efficiency, cells were seeded in 6-well plates. For quantification of homozygous knock-out events (DTr) 20,000 cells were seeded, 40,000 cells for quantification of integration events (PMr) or double resistances. […]

DPH2 gene [2] = test: DT resistant colony count after DPH2 gene editing; conditions: DPH2 assay (integr. vs. k.o.)
Description: as §1, §2, §3

DPH2 gene [3] = test: PM resistant colony count after DPH2 gene editing; conditions: DPH2 assay (integr. vs. k.o.); for # of PM resistant colonies (40,000 seeded cells): MCF7, individual samples A-D
Description: as §1, §2, §3
CRISPR/Cas module for targeted integration contains a puromycin (PM) resistance gene expression cassette without promoter to avoid transient expression. Thus, detection of integration of recombinant sequences into the genome was detected by determining sensitivity of cells towards PM. A concentration of […] PM (which quantitatively eliminates wildtype MCF7 cells) was applied to select MCF7 cells with stably integrated expression cassettes. PM-resistant colonies selected with the same procedure as described above for the DT selection and visualized and quantified (between 12 and 14 days after start of selection) in the same manner as described above for toxin resistant colonies. Number of PM resistant colonies obtained with non-target guide sequences (scrambled gRNA, FIG. 1) reflect the nonspecific integration background. […]

DPH1 gene [4] = test: HRM-PCR on single cells followed by DT sensitivity assay; conditions: FIG. 5B
Description: Cells which have only one allele of dph1 or dph2 modified are not toxin resistant. To identify and quantify those events, high resolution melting (HRM) PCR was applied in a similar manner as described by Stahl et al (Stahl, et al. 2015): 24 h after transfection, single cells were deposited in 96-well plates by FACS (FACSAria, BD biosciences) and grown until confluency. Cells were washed with PBS and lysed by addition of 40 μL cell lysis buffer (Roche) per well. After 15 mins incubation at RT on a plate shaker (Titramax 1000, Heidolph) at 750 rpm, the cell lysate was 1:5 diluted with PCR grade H2O. 5 μL cell lysate was mixed with a High resolution melting (HRM) master mix (Roche) and with primer spanning the gRNA target sequence. PCR and HRM were performed in an LC480 II (Roche) according the manufacturer's protocol. Clones with edited target genes were identified by their altered melting curve compared to MCF7-WT cells.
Therefore, such clones were expanded (without toxin or Puromycin selection) and subjected to cell viability analyses to discriminate between heterozygous (toxin sensitive) and homozygous (resistant) knockout cells. […] Metabolic activity of surviving cells was assessed by a CellTiterGlo® Luminescent Viability Assay (Promega) performed according to the manufacturer's specifications.

Substance | # of DT resistant colonies (20,000 seeded cells) (DPH1 gene [1]) | # of DT resistant colonies (20,000 seeded cells) (unheaded second sub-column: mean) (DPH1 gene [1]) | # of DT resistant colonies (mean of the samples) (DPH1 gene [1]) | # of DT resistant colonies (DPH1 gene [1]) | generation of DTr colonies (DPH1 gene [1]) | generation of DTr colonies (DPH1 gene [1]; listed as scrambled guides) | # of DT resistant colonies (40,000 seeded cells) (unheaded second sub-column: mean) (DPH2 gene [2]; MCF7) | # of DT resistant colonies (40,000 seeded cells) (DPH2 gene [2]; MCF7, individual samples A-D) | # of PM resistant colonies (40,000 seeded cells) (unheaded second sub-column: mean) (DPH2 gene [3]; MCF7) | # of PM resistant colonies (40,000 seeded cells) (DPH2 gene [3]) | # of PM resistant colonies (40,000 seeded cells) (DPH2 gene [3]; listed as 20 mer scRNA) | efficiency relative to ZFN-editing (gene inactivation and integration) (DPH1 gene [1]) | efficiency relative to engineered high fidelity CRISPR/Cas9 (DPH1 gene [1]) [fold] | # of DT resistant colonies (20,000 seeded cells) (DPH1 gene [1]; listed as 20 mer Dph1 CRISPR Cas9 gRNA) | # of DT resistant colonies (DPH1 gene [1]; listed as CRISPR Cas9 Dph1 gRNA) | DPH1 inactivation efficacy in dependence on gRNA length (DPH1 gene [1]; DTr colonies) | frequency of complete inactivation of the DPH1 gene (all alleles) (DPH1 gene [1]; MCF7, FIG. 5A) | efficacy of inactivation of both DPH1 alleles (DTr) over integration of the PAC expression cassette (PMr) (DPH1 gene [1]; MCF7, FIG. 6) | frequency of complete inactivation of the DPH1 gene (all alleles) (DPH1 gene [1]; MCF7, considering transfection efficiencies of 40%) | mono-allelic gene inactivation (toxin sensitive, HRM confirmed) versus inactivation of both alleles (DTr) (DPH1 gene [4])
20 mer SpCas9 scRNA: Scrambled control gRNA GCACTACCAGAGCTAACTCA (SEQ ID NO: 03) with SpCas9 and donor plasmid [reference compound] | 0 | 0 | 0 | 0 | did not generate any DTr colony | did not generate any DT-resistant colony | 0 | 0 | 0.5 | 2 and 0 (3×) | 2 and 0 (3×) | – | – | – | – | – | – | – | – | –
20 mer SpCas9 DPH1 gRNA: Plasmids encoding SpCas9 and Dph1 gRNA (target CAGGGCGGCCGAGACGGCCC, SEQ ID NO: 01) plus PAC donor plasmid, OriGene | 417 and 406 and 409 and 404 | 409 | 472 | 364 and 545 and 543 and 435 | – | – | – | – | – | – | – | twice as efficient | 5 | 417 and 406 and 409 and 404 | 364 and 545 and 543 and 435 | maximum DPH1 inactivation efficacy; also recorded: maximal DPH1 gene inactivation efficiency | ~6 % of all transfected cells | 30-50 fold | 2.5 % of all cells | twice as frequent
